These results are taken from ChEMBL document CHEMBL1141806, “Gloeolactone, a New Epoxy Lactone from a Blue-Green Alga” (J Nat Prod, 1998).

Calls of active or inactive are those of the source. The calls are words filed in the database; no cut-off is given here.

Data set [1] in a line: Toxicity against brine shrimp at 125 ug/mL. Format: organism-based. To be noted: artemia, in vivo; read-out: Activity.
For a further data set, the system named is Vibrio harveyi. In words: Antimicrobial activity against Vibrio harveyi. The data set is classed as functional, organism-based.

On to `CC/C=C\C[C@H]1O[C@@H]1/C=C/C1CCCCCCCC(=O)O1` (some centres not stated) [GLOEOLACTONE], for which the mortality at 125 ug/mL in data set [1] is 100%. Moreover, the result in the data set on Vibrio harveyi was inactive.
